Assay results: EP4772497A1, “POLYMORPHS OF NITROGEN-CONTAINING HETEROCYCLIC COMPOUNDS, AND USES THEREOF” (BNH Research Co., Ltd., priority 2023, dated 2025)

Columns and labels:
OPN = experiment: Mouse proteome profiling array analysis of somatosensory cortex homogenates; assay type: in vivo; settings: APP/PS1 mice, 1 mg/kg orally for 14 days, cerebral cortex, vs vehicle-treated control group
Protocol: (§1) To evaluate the efficacy of crystalline form C of the present disclosure in inhibiting amyloid-beta protein accumulation, mouse proteomic profiling array analysis and Bielschowsky silver staining were performed. 15-week-old APP/PS1 mice were used in the experiment, and crystalline form C of the present disclosure (1 mg/kg of BnH-015B) or a vehicle was administered orally.
(§2) Relative levels of mouse cytokines, chemokines, and growth factors were determined using a membrane-based antibody array kit (Proteome Profiler Mouse XL Cytokine Array Kit, ARY028 R&D Systems, Inc., Minneapolis, USA) which features 111 capture antibodies coated in duplicate on a nitrocellulose membrane. Homogenates of the somatosensory cortex of APP/PS1 mice were prepared and tested according to the manufacturer's instructions. The array was detected using an X-ray film (Super RX, Fujifilm, Tokyo, Japan), and the film was read using an Epson scanner (L655 series, Epson, Suwa, Japan), followed by image analysis using ImageJ with the Protein Array Analyzer Macro (National Institutes of Health, Bethesda, MD, USA). […]
(§3) Statistical analysis was performed using GraphPad Prism 9.5.0 software (San Diego, CA, USA). […] All data are expressed as mean ± SEM.

IL-33 = experiment: as above; assay type: in vivo; settings: APP/PS1 mice, 1 mg/kg orally for 14 days, cerebral cortex, vs vehicle-treated control group
Protocol: as §1, §2, §3

[1] = Wet granulation simulation experiment (XRPD); assay type: physicochemical; settings: ground, dried 10 minutes
Protocol: Water or ethanol was added dropwise to about 10 mg of crystalline form C until it was sufficiently wetted. The wet sample was gently ground using a mortar and pestle. After the granulation, the sample was dried under ambient conditions for 10 minutes. Potential changes in form and crystallinity were evaluated by XRPD.
The XRPD results of the wet granulation simulation experiments are shown in Fig. 12, where GNSE1 and GNSE2 represent experiment IDs for water and ethanol, respectively.

[2] = Dry grinding simulation experiment (XRPD); assay type: physicochemical; settings: manually ground for 1, 3, and 5 minutes, mortar and pestle
Protocol: About 5 mg of crystalline form C was manually ground for 1, 3, and 5 minutes using a mortar and pestle. Potential changes in form and crystallinity were evaluated by XRPD.
The XRPD results of the dry grinding simulation experiments are shown in Fig. 11, where GSE1, GSE2, and GSE3 represent experiment IDs for grinding for 1 minute, 3 minutes, and 5 minutes, respectively.

[3] = Bulk stability of crystalline form C under stress conditions (HPLC, XRPD, color); assay type: physicochemical; settings: for Color / Purity (HPLC) Initial purity:99.9%: 1 week
Protocol: Crystalline form C was placed in an open container at 25°C/92.5% RH, in an open container at 40°C/75% RH, and in a closed container at 60°C for 1 week, respectively. After exposure to the stress conditions, the samples were characterized by XRPD and HPLC, and examined for color changes.
Reference is made to Experimental Method 6 for the HPLC conditions.

[4] = BS1: Solid state, 25°C/92.5% RH, open container
[5] = BS2: Solid state, 40°C/75% RH, open container
[6] = BS3: Solid state, 60°C, closed container

C[C@@H]1CC[C@H](C(=O)O)CN1C(=O)Cc1ccc(F)cc1Cl [Crystalline form C, (3S,6R)-1-(2-(2-chloro-4-fluorophenyl)acetyl)-6-methylpiperidine-3-carboxylic acid]
OPN expression (OPN): suppressed
expression level of IL-33 (IL-33): significantly increased
change in form and crystallinity on granulation with ethanol ([1]; wetted with ethanol): no change in form, but its crystallinity decreased significantly
change in form and crystallinity on granulation with water ([1]; wetted with water): without any change in form or apparent decrease in crystallinity
change in form and crystallinity on grinding [2]: no change in form, but its crystallinity decreased significantly
Color [3, 4]: No color change
Purity (HPLC) Initial purity:99.9% [3, 4]: 99.9%
Color [3, 5]: No color change
Purity (HPLC) Initial purity:99.9% [3, 5]: 99.9%
Color [3, 6]: No color change
Purity (HPLC) Initial purity:99.9% [3, 6]: 99.9%
bulk stability ([3]; from HPLC and XRPD results after 1 week stress): high bulk stability both physically and chemically
